Assay results from US8420308B2, “Methods and kits for diagnosis of schizophrenia” (Technion R&D Foundation Ltd., priority 2000, dated 2013).
Where two headings read alike, the source gives them in different places.

Experiments:
[1] = target: T1, complex II (Homo sapiens, UniProt O14521+P21912+P31040+Q99643); assay: Complex II driven respiration in SH-SY5Y cells; assay type: cell-based; set-up: endogenous in cells; host or cells: SH-SY5Y; conditions: for inhibition at 50 µM: 5 × 10^−5 M; for inhibition at 50 µM / inhibition at 100 µM: means ± SD of 4-6 detections; for inhibition at 100 µM: 10^−4 M
Excerpt: (§1) The effect of antipsychotic drugs on respiration in SH-SY5Y cells was studied.

[2] = target: T2, complex I (Homo sapiens, UniProt P19404+P28331+P49821); assay: Complex I driven respiration in SH-SY5Y cells; assay type: cell-based; set-up: endogenous in cells; host or cells: SH-SY5Y; conditions: for % Inhibition - complex I: 5 × 1O^−5 M; for % Inhibition - complex I / inhibition at 100 µM: means ± SD of 4-6 detections; for inhibition at 100 µM: 10^−4 M
Excerpt: as §1

[3] = target: T3, mitochondrial complex I (NADH ferricyanide reductase) (Homo sapiens, UniProt P19404+P28331+P49821); assay: Dopamine inhibition of NADH-ferricyanide reductase (complex I) activity in platelet mitochondria; assay type: biochemical; conditions: platelet mitochondrial preparation
T3 construct: an enriched mitochondrial fraction was isolated on percoll as described previously; from tissue; host or cells: mitochondria-enriched fraction of blood platelets, disrupted by freeze-thaw or digitonin
Experimental: NADH ferricyanide reductase activity was determined at Vmax ferricyanide throughout the study with or without antimycin A (Singer, 1974). […] The reaction was started by the addition of 0.1 mM potassium ferricyanide and 0.14 mM NADH with and without 10 μg antimycin A. The decrease in NADH absorbance was followed at 340 nm for 1 min with a 3 sec interval between successive readings and 1 sec initial delay.

[4] = target: T4, NADH CoQ reductase (complex I) (Homo sapiens, UniProt P19404+P28331+P49821); assay: NADH-CoQ reductase activity in platelet mitochondria; assay type: biochemical; conditions: 10 μM rotenone; read-out: Residual activity of NADH CoQ reductase in the presence of rotenone
T4 construct: an enriched mitochondrial fraction was isolated on percoll as described previously; from tissue; host or cells: mitochondria-enriched fraction of blood platelets, disrupted by freeze-thaw or digitonin
Experimental: Blood (40-80 ml) was collected from the cubital vein without tourniquet between 8:00 and 10:00 a.m., mixed 9:1 with 3.8% (w/v) tri-sodium citrate, and platelet-rich plasma (PRP) separated at room temperature by centrifugation at 200×g for 20 min. Platelets were isolated and washed with Tyrode's buffer pH 7.4 containing 1 mM EDTA as described previously (Krige et al., 1992). The platelet pellet was gently resuspended in ice cold 10 mM Tris buffer pH 7.4 containing 250 mM sucrose and 1 mM EDTA and disrupted by a Dounce A homogenizer (20-30 strokes). The breakdown of the platelets was verified by light microscopy. The homogenate was centrifuged at 1000×g at 4° C. for 20 min to remove unbroken cells. The supernatant, containing the cytoplasmic extract was centrifuged at 12,000×g at 4° C. For 15 min and an enriched mitochondrial fraction was isolated on percoll as described previously (Ben-Shachar et al., 1995; Gavin et al., 1990; McComark and Denton, 1989). […] The final preparation was immediately stored at −70° C. until use.
Mitochondrial respiratory chain enzymes activity was assayed blindly and in triplicate after two cycles of freezing and thawing in a final volume of 1 ml at 25° C. by standard techniques. […]
Results from both assays for each sample are expressed as the difference between reductases activities in the absence and the presence of the relevant inhibitors.

[5] = system: EBV transformed lymphocytes
Experimental: Lymphocytes were isolated on Ficol and were centrifugated at 270 g for 10 minutes, the cell pellet was infected with 1 ml EBV at 37° C. for 1 h. The sample was then centrifuged at 270 g for 10 minutes to remove the EBV. The infected lymphocytes were-suspended in 5 ml of RPMI 1640 with 20% (v/v) FBS and 1% phytohemagglutinin (PHA) and incubated in a culture flask with culture medium replaced twice a week. Immortalized lymphocytes were then cryopreserved until use in liquid nitrogen.
Respiration was measured polarographically using a thermostatically controlled (37° C.) Clark oxygen electrode after 10 minutes of incubation. The respiration rates were assessed after the permeabilization of cellular membrane with 0.001% digitonin and the addition of glutamate+malate

[6] = target: T1, complex II; conditions: succinate in the presence of rotenone and ATP
Experimental: (§2) Respiration rate was determined polarographically using a thermostatically controlled (37° C.) Clark oxygen electrode after 10 minutes of incubation. Respiration rates for each enzyme of the respiratory chain were assessed after the permeabilization of cellular membrane, with 0.001% digitonin followed by the addition of the following substrates and inhibitors: […] plus malate for complex I induced respiration; succinate, in the presence of rotenone and ATP for complex II induced respiration, and glycerol-3-phosphate, in the presence of rotenone. […] Results are means±SD of 3 experiments.

[7] = target: complex III (Homo sapiens, UniProt P00156+P08574+P47985); conditions: glycerol-3-phosphate in the presence of rotenone, ATP and malonate
Experimental: as §2

[8] = target: T2, complex I; conditions: permeabilized cells, 37° C., 10 minutes of incubation; means±SD of 3 experiments
Experimental: as §2

T2 sequence (P49821 21-464): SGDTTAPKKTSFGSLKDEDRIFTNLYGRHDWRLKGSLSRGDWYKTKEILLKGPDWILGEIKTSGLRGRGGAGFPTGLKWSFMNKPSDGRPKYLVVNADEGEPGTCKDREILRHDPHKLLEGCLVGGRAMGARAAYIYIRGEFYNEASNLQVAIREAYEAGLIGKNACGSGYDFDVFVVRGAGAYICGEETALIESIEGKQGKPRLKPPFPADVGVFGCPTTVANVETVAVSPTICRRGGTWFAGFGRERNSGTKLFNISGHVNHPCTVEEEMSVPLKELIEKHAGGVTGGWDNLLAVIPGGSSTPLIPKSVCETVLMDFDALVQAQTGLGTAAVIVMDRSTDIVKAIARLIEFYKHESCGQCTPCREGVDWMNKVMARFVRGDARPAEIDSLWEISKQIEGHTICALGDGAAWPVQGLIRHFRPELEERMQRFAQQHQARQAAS
T2 sequence (P19404 33-249): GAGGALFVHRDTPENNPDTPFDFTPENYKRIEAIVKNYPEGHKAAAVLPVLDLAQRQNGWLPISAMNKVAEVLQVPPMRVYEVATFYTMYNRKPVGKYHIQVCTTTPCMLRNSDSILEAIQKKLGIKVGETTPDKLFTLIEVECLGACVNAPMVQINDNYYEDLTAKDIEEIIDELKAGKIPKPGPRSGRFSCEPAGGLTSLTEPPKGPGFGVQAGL
T2 sequence (P28331 24-727): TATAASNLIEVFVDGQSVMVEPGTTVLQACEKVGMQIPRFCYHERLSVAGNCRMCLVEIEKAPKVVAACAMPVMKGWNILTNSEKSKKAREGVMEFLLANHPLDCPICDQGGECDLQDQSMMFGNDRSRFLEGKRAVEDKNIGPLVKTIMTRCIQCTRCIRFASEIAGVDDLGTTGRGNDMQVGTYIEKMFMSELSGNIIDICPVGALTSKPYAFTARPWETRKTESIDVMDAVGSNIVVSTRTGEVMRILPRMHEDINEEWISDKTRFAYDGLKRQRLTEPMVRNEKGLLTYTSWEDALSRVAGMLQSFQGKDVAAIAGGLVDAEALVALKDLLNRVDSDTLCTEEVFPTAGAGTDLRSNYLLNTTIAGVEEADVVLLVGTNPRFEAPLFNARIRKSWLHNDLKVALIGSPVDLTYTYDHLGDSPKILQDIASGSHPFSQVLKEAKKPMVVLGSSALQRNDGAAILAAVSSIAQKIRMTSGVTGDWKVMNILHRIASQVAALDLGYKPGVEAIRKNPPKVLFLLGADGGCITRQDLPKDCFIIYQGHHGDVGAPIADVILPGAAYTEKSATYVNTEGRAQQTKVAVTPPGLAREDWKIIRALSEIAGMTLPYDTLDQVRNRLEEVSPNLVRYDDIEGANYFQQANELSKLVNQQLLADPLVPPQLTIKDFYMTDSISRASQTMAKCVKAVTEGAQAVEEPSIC
T1 sequence (P31040 43-664): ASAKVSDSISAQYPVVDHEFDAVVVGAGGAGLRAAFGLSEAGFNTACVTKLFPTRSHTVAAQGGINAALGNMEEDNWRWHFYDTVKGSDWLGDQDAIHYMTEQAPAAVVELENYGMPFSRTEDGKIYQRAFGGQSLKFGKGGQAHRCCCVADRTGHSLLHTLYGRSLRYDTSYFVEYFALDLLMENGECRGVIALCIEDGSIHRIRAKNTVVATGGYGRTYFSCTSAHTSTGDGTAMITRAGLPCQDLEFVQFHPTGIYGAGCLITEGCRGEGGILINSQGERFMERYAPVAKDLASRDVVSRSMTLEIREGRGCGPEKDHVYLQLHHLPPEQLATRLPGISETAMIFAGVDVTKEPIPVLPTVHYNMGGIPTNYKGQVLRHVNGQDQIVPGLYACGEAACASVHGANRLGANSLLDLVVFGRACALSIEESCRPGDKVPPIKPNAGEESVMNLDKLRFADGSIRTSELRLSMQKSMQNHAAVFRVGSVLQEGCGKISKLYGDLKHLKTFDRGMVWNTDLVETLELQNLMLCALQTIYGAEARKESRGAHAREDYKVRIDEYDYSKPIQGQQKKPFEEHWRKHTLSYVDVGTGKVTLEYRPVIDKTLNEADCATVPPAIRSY
T1 sequence (P21912 29-280): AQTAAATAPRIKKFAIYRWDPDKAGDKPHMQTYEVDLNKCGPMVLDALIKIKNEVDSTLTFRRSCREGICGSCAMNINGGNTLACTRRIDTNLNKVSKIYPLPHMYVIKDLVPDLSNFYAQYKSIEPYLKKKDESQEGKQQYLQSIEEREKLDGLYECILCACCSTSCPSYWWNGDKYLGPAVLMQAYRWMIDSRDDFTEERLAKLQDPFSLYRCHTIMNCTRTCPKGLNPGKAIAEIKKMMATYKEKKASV
T1 sequence (Q99643 30-169): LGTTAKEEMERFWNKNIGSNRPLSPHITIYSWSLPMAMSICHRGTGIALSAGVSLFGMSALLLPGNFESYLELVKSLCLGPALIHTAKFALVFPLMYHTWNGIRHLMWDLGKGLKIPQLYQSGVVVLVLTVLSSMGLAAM
T1 sequence (O14521 57-159): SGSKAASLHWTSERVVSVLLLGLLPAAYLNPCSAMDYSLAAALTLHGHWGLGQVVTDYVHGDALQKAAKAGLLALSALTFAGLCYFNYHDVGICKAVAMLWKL
T3 sequence (P49821 21-464): as the sequence (P49821 21-464) above
T3 sequence (P19404 33-249): as the sequence (P19404 33-249) above
T3 sequence (P28331 24-727): as the sequence (P28331 24-727) above
T4 sequence (P28331 24-727): as above
T4 sequence (P49821 21-464): as the sequence (P49821 21-464) above
T4 sequence (P19404 33-249): as the sequence (P19404 33-249) above

## O=C(CCCN1CCC(O)(c2ccc(Cl)cc2)CC1)c1ccc(F)cc1 [Haloperidol]
[1]
  Effect on respiration through complex II (in words): no effect
  inhibition at 50 µM: 0.7 ± 0.7%
  inhibition at 100 µM: 2.9 ± 1.8%
[2]
  Effect on complex I driven mitochondrial respiration (in words): specifically inhibit complex I driven mitochondrial respiration
  % Inhibition - complex I: 27.2 ± 4.7 %
  inhibition at 100 µM: 47.6 ± 10%

## C=C(C)[C@H]1Cc2c(ccc3c2O[C@@H]2COc4cc(OC)c(OC)cc4[C@@H]2C3=O)O1 [rotenone]
[3]
  Effect on NADH ferricyanide reductase activity: no effect
[4]
  remaining activity at 10 µM: 5 to 15%

## CN(C)CCCN1c2ccccc2Sc2ccc(Cl)cc21 [Chlorpromazine]
[1]
  Effect on respiration through complex II (in words): no effect
  inhibition at 50 µM: 6.6 ± 3.5%
  inhibition at 100 µM: 14.9 ± 2.1%
[2]
  Effect on complex I driven mitochondrial respiration (in words): specifically inhibit complex I driven mitochondrial respiration
  % Inhibition - complex I: 20.9 ± 18.1 %
  inhibition at 100 µM: 43.8 ± 17.3%

## CN1CCN(C2=Nc3cc(Cl)ccc3Nc3ccccc32)CC1 [Clozapine]
[1]
  inhibition at 50 µM: 10.9 ± 1.6%
  inhibition at 100 µM: 2.6 ± 2.4%
[2]
  % Inhibition - complex I: 31.2 ± 5.6 %
  inhibition at 100 µM: 39.9 ± 20.8%

## CN(C)CCCN1c2ccccc2CCc2ccc(Cl)cc21 [Anafranil]
[1]
  inhibition at 50 µM: 11 ± 1.2%
  inhibition at 100 µM: 22.1 ± 18%
[2]
  % Inhibition - complex I: 13.0 ± 11.0%
  inhibition at 100 µM: 32.1 ± 8.8%

## CNCCC(Oc1ccc(C(F)(F)F)cc1)c1ccccc1 (centres unmarked) [Fluoxetine]
[1]
  inhibition at 50 µM: 15 ± 9.2%
  inhibition at 100 µM: 25.3 ± 0.2%
[2]
  % Inhibition - complex I: 15.7 ± 25.5%
  inhibition at 100 µM: 29.2 ± 22.7%

## NCCc1ccc(O)c(O)c1 [Dopamine]
[5]; EBV transformed lymphocytes
  Inhibition by DA in schizophrenic patients relative to control subjects: higher by two fold
[5]; lymphoblasts of control subjects (n=7)
  Inhibition of respiration by DA: 11.4±7.2%
[5]; lymphoblasts of schizophrenic patients (n=7)
  Inhibition of respiration by DA: 26.8±8.6%
[6]
  Inhibition of respiration through complex II: not through complex II
[7]
  Inhibition of respiration through complex III: not through complex II and III
[8]
  Inhibition of respiration through complex I: 33.3±0.07%
